What was measured:
Assay type in all cases: cell-based, rat
[1] = system: PKA; assay: PKA protein expression by immunoblotting in TNF-α-exposed TSMCs; settings: TSMCs with TNF-α 100 ng/ml; for effect on TNF-α-induced increases of PKA protein: 10 μM, FIG. 8; for effect on TNF-α-increased expression of PKA protein: 0.1-100 μM, FIG. 7(A) as cited in text
Protocol: (§1) The tracheal smooth muscle cell (TSM) culture is prepared from male Wistar rats purchased from the National Laboratory Animal Breeding and Research Center (Taipei, Taiwan).
(§2) The Wistar rats were injected intraperitoneally with a lethal dose of pentobarbital. The tracheas were excised and cut longitudinally through the cartilage. Using a dissecting microscope, TSM strips were dissected from the surrounding parenchyma. The epithelium was removed from the luminal surface, and bands of TSM were gently separated from the underlying connective tissue. The TSM strips were then chopped into small sections (1 mm^3) and incubated in Hank's balanced salt solution (NaCl, 138 mM; NaHCO3, 4 mM; KCl, 5 mM; KH2PO4, 0.3 mM; Na2HPO4, 0.3 mM; glucose, 1.0 mM) with 0.05% elastase type IV and 0.2% collagenase type IV (Invitrogen, Carlsbad, Calif.) for 30 min at 37° C. with gentle shaking. The solution of dissociated smooth muscle cells was centrifuged (6 min at 500 g) and the pellet was resuspended in 1:1 Dulbecco's modified Eagle's medium-Ham's F-12 medium supplemented with 10% fetal bovine serum (FBS), 0.244% NaHCO3, and 1% penicillin/streptomycin. Cells were cultured in a condition with or without KMUP-1, KMUP-3 and other negative or positive control agents, in 25 cm^2 flasks at 37° C. in humidified air containing 5% CO2. The medium was changed every 2-3 days.
(§3) To investigate the effects of TNF-α on PKG and PKA proteins, TSMCs were incubated with TNF-α (100 ng/ml) for 1, 3, 6, 9, 12, 18 and 24 hr, and the levels of PKG and PKA proteins were measured by immunoblotting. […] To investigate the effects of KMUP-1, KMUP-3, and the other PDE5 inhibitors zaprinast and exogenous 8-Br-cGMP on the TNF-α mediated pathway, TSMCs were incubated with TNF-α (100 ng/ml) and either one of the mentioned chemicals.

[2] = system: iNOS; assay: iNOS protein expression by immunoblotting in TNF-α-exposed TSMCs; settings: TSMCs with TNF-α 100 ng/ml
Protocol: as §1, §2
(§4) To investigate the effects of TNF-α on iNOS and sGC proteins, TSMCs were incubated with TNF-α (100 ng/ml) for 1, 3, 6, 9, 12, 18 and 24 hr, and the levels of iNOS and sGC subunit proteins were measured by immunoblotting. […] In contrast to the increase expression of iNOS protein in FIG. 2, TNF-α in FIG. 3 decreased the expression of sGCα1 and sGCβ1 proteins in a time-dependent manner, with the maximal inhibition achieved at 9 hr. To investigate the effects of KMUP-1, KMUP-3, and the other PDE5 inhibitors zaprinast and exogenous 8-Br-cGMP on the TNF-α mediated pathway, TSMCs were incubated with TNF-α (100 ng/ml) and either one of the mentioned chemicals.

[3] = system: sGCα1 and sGCβ1 proteins; assay: sGC subunit protein expression by immunoblotting in TNF-α-exposed TSMCs; settings: 10 μM; TSMCs with TNF-α 100 ng/ml; FIG. 5
Protocol: as §1, §2, §4

[4] = system: PKG; assay: PKG protein expression by immunoblotting in TNF-α-exposed TSMCs; settings: TSMCs with TNF-α 100 ng/ml; for effect on TNF-α-induced decreases of PKG protein: 10 μM, FIG. 8; for effect on TNF-α-induced decreases of PKG protein expression: concentration series, FIG. 7(B) as cited in text
Protocol: as §1, §2, §3

[5] = system: nitrite/nitrate (NO); assay: NO level measured by nitrite/nitrate in TSMC culture medium (colorimetric assay); settings: 10 μM, 20 min pretreatment, then TNF-α 100 ng/ml for 9 hrs; FIG. 11
Protocol: as §1, §2
Exposure of TSMCs to TNF-α (100 ng/ml) for 9 hrs led to accumulation of nitrite and nitrate in the culture medium, indicating the release of NO. Please refer to the FIG. 11, TSMCs were pretreated with KMUP-1, KMUP-3, 8-Br-cGMP and zaprinast for 20 minutes, and were further incubated in the presence of TNF-α (100 ng/ml) for 9 hrs. The concentrations of nitrite and nitrate (stable breakdown product of NO) of each sample were analyzed using nitrite/nitrate colorimetric assay kits (Cayman Chemical Co.) and run in duplicate.

[6] = system: COX-2; assay: COX-2 protein expression by immunoblotting in TNF-α-exposed TSMCs; settings: TSMCs with TNF-α 100 ng/ml, FIG. 9(B)
Protocol: The Wistar rats were injected intraperitoneally with a lethal dose of pentobarbital. The tracheas were excised and cut longitudinally through the cartilage. Using a dissecting microscope, TSM strips were dissected from the surrounding parenchyma. The epithelium was removed from the luminal surface, and bands of TSM were gently separated from the underlying connective tissue. The TSM strips were then chopped into small sections (1 mm^3) and incubated in Hank's balanced salt solution (NaCl, 138 mM; NaHCO3, 4 mM; KCl, 5 mM; KH2PO4, 0.3 mM; Na2HPO4, 0.3 mM; glucose, 1.0 mM) with 0.05% elastase type IV and 0.2% collagenase type IV (Invitrogen, Carlsbad, Calif.) for 30 min at 37° C. with gentle shaking. The solution of dissociated smooth muscle cells was centrifuged (6 min at 500 g) and the pellet was resuspended in 1:1 Dulbecco's modified Eagle's medium-Ham's F-12 medium supplemented with 10% fetal bovine serum (FBS), 0.244% NaHCO3, and 1% penicillin/streptomycin. […] The medium was changed every 2-3 days.
To investigate the effects of TNF-α on COX-2 protein, TSMCs were respectively incubated with or without TNF-α (100 ng/ml) for 1, 3, 6, 9, 12, 18 and 24 hr, and the levels of COX-2 proteins were measured by immunoblotting.

[7] = system: cGMP; assay: Intracellular cGMP level in TSMCs (radioimmunoassay); settings: 10 μM, 20 min pretreatment, then TNF-α 100 ng/ml for 9 hrs; FIG. 10(A)
Protocol: as §1
as §2, with “Cells were cultured in a condition with or without KMUP-1, KMUP-3 and other negative or positive control agents, in 25 cm^2 flasks at 37° C. in humidified air containing 5% CO2. The medium was changed every 2-3 days.” left out
Intracellular cGMP production was decreased and reaching minimal production at 9 hr in TSMCs in the presence of TNF-α (100 ng/ml). Intracellular concentrations of cAMP and cGMP in TSMC were measured to investigate the effects of KMUP-1, KMUP-3, and the other PDE5 inhibitor zaprinast or the isoproterenol thereto. […] The concentrations of cGMP of each sample were measured using cGMP-[125I] radioimmunoassay kits (GE Healthcare Bio-Sciences Corp., Piscataway, N.J.). […] As to the level of the cAMP, TSMCs were incubated with isoproterenol, KMUP-1, and KMUP-3 for 20 min, and further incubated in the absence or presence of TNF-α (100 ng/ml) for 9 hrs, where the concentrations of cAMP of each sample were measured using cAMP-[125I] radioimmunoassay kits (GE Healthcare Bio-Sciences Corp., Piscataway, N.J.).

[8] = system: cAMP; assay: Intracellular cAMP level in TSMCs (radioimmunoassay); settings: FIG. 10(B)
Protocol: as §1, §2
Intracellular cGMP production was decreased and reaching minimal production at 9 hr in TSMCs in the presence of TNF-α (100 ng/ml). Intracellular concentrations of cAMP and cGMP in TSMC were measured to investigate the effects of KMUP-1, KMUP-3, and the other PDE5 inhibitor zaprinast or the isoproterenol thereto. As to the level of cGMP, TSMCs were pretreated with KMUP-1, KMUP-3, and the other PDE5 inhibitor zaprinast for 20 minutes and were further incubated in the presence of TNF-α (100 ng/ml) for 9 hrs. The concentrations of cGMP of each sample were measured using cGMP-[125I] radioimmunoassay kits (GE Healthcare Bio-Sciences Corp., Piscataway, N.J.). […] As to the level of the cAMP, TSMCs were incubated with isoproterenol, KMUP-1, and KMUP-3 for 20 min, and further incubated in the absence or presence of TNF-α (100 ng/ml) for 9 hrs, where the concentrations of cAMP of each sample were measured using cAMP-[125I] radioimmunoassay kits (GE Healthcare Bio-Sciences Corp., Piscataway, N.J.).

[9] = system: PGE2 and 6-keto-PGF1a; assay: PGE2 and 6-keto-PGF1a release from TNF-α-exposed TSMCs (EIA); settings: 10 μM, 20 min pretreatment, then TNF-α 100 ng/ml for 24 hrs; FIG. 12
Protocol: as §1, §2
Incubation of TSMCs with TNF-α (100 ng/ml) increased the releases of PGs, PGE2 and 6-keto-PGF1a, a PGI2 stable metabolite, and the greatest increases occurred were measured at 24 hr. Please refer to the FIG. 12, TSMCs were pretreated with KMUP-1 (10 μM), KMUP-3 (10 μM), dexamethasone (1 μM) and zaprinast (10 μM) for 20 minutes, and were further incubated in the presence of TNF-α (100 ng/ml) for 24 hrs, where the concentrations of PGE2 and 6-keto-PGF1a (stable metabolite of […]) in the culture medium were measured using PGE2 and 6-keto-PGF1a EIA assay kits (Cayman Chemical Co., Ann Arbor, Mich.) in duplicate.

[10] = in the presence of TNF-α 100 ng/ml for 9 hrs

Row | Compound | effect on TNF-α-induced increases of PKA protein [1] | effect on TNF-α-induced increases of iNOS expression ([2]; 10 μM, FIG. 4(B)) | effect on TNF-α inhibition of sGCα1 and sGCβ1 protein expression [3] | effect on TNF-α-induced decreases of PKG protein [4] | effect on TNF-α-induced production of nitrite/nitrate (NO levels) [5] | effect on TNF-α-induced increases of iNOS expression ([2]; 0.01-100 μM, FIG. 4(A)) | effect on TNF-α-induced decreases of PKG protein expression [4] | effect on TNF-α-increased expression of PKA protein [1] | inhibition of TNF-α-induced COX-2 expression [6] | effect on TNF-α-decreased intracellular cGMP [7] | production of cAMP compared to the control group ([8]; 10 μM, in the absence of TNF-α) | production of cAMP compared to the control group [8, 10] | effect on TNF-α-induced PGE2 and 6-keto-PGF1a formation [9] | inhibition of TNF-α-induced COX-2 expression ([6]; 10 μM pretreatment)
1 | Nc1ncnc2c1nc(Br)n2[C@@H]1O[C@@H]2COP(=O)(O)O[C@H]2[C@H]1O [8-Br-cAMP, reference compound] | could not affect TNF-α-induced increases of PKA protein | – | – | – | – | – | – | – | – | – | – | – | – | –
2 | Nc1nc2c(nc(Br)n2[C@@H]2O[C@@H]3COP(=O)(O)O[C@H]3[C@H]2O)c(=O)[nH]1 [8-Br-cGMP, reference compound] | – | inhibited TNF-α-induced increases of iNOS expression to a similar extent | reversed | reversed TNF-α-induced decreases of PKG protein | inhibited | – | – | – | – | – | – | – | – | –
3 | Cn1c(=O)c2c(ncn2CCN2CCN(c3ccccc3Cl)CC2)n(C)c1=O [KMUP-1, 7-[2-[4-(2-chlorobenzene)piperazinyl]ethyl]-1,3-dimethylxanthine] | could not affect TNF-α-induced increases of PKA protein | inhibited TNF-α-induced increases of iNOS expression to a similar extent | reversed | reversed TNF-α-induced decreases of PKG protein | inhibited | inhibited TNF-α-induced increases of iNOS expression in a concentration-dependent manner | reversed | not further increased | not | reversed to the basal level | significantly increased | could not further increase | did not inhibit | –
4 | Cn1c(=O)c2c(ncn2CCN2CCN(c3ccc([N+](=O)[O-])cc3)CC2)n(C)c1=O [KMUP-3, 7-[2-[4-(4-nitrobenzene)piperazinyl]ethyl]-1,3-dimethylxanthine] | could not affect TNF-α-induced increases of PKA protein | inhibited TNF-α-induced increases of iNOS expression to a similar extent | reversed | reversed TNF-α-induced decreases of PKG protein | inhibited | inhibited TNF-α-induced increases of iNOS expression in a concentration-dependent manner | reversed | not further increased | not | reversed to the basal level | significantly increased | could not further increase | did not inhibit | –
5 | CS(=O)(=O)Nc1ccc([N+](=O)[O-])cc1OC1CCCCC1 [NS-398, reference compound] | – | – | – | – | – | – | – | – | – | – | – | – | significantly inhibited | significantly inhibit
6 | CC(C)NCC(O)c1ccc(O)c(O)c1 (stereo not shown) [isoproterenol, reference compound] | – | – | – | – | – | – | – | – | – | – | significantly increased | – | – | –
7 | CCCOc1ccccc1-c1nc2nn[nH]c2c(=O)[nH]1 [zaprinast, reference compound] | could not affect TNF-α-induced increases of PKA protein | inhibited TNF-α-induced increases of iNOS expression to a similar extent | reversed | reversed TNF-α-induced decreases of PKG protein | inhibited | – | – | – | – | reversed to the basal level | – | – | – | –

Reference: US20090209560A1, “ANTI-INFLAMMATION ACTIVITY OF NEWLY SYNTHESIZED XANTHINE DERIVATIVES KMUP-1 AND KMUP-3” (KAOHSIUNG MEDICAL UNIVERSITY, priority 2006, published 2009)
